Reference: US20050215548A1 (Cyclacel Limited, priority 2002, published 2005)
Read-outs that look alike come from different tables or passages of the source.

Columns and labels:
H1299 [1] = experiment: Combination treatment with cisplatin or etoposide, MTT, H1299; type: cell-based, human; conditions: 72 hours
Description: (§1) It is well established that radiotherapy and most current forms of chemotherapy cause extensive genetic damage and induction of the p53-dependent apoptotic pathway, which determines the important role of this tumor suppressor protein in cancer therapy. HDM2, on the other hand, as a transcriptional product and negative regulator pf p53, would destabilise p53 and diminish its pro-apoptotic function. Inhibitors of the p53-HDM2 negative feedback loop (e.g. compounds disrupting the p53-HDM2 complex) are expected to synergise with cytotoxic agents for induction of p53 and subsequent apoptosis. […] Both chemotherapeutic agents were used in the concentration range of 100-0.19 μM.

AGS [2] = experiment: Combination treatment with cisplatin or etoposide, MTT, AGS; type: cell-based, human; conditions: MTT, 72 hours
Description: as §1

MCF7 or H1299 cells = experiment: Cell cycle distribution, propidium iodide flow cytometry; type: cell-based, human; conditions: 5 times IC50
Experimental: Cells were stained with propidium iodide and the cell cycle position was determined using a flow cytometer.

SJSA-1 [3] = experiment: Combination treatment with cisplatin or etoposide, MTT, SJSA-1; type: cell-based, human; conditions: MTT, 72 hours
Description: as §1

[4] = system: key proteins in the HDM2 pathway; experiment: SDS-PAGE and immunoblotting of key proteins in the HDM2 pathway; type: cell-based, human; conditions: compound 2: AGS, H1299, MCF7 or SJSA1 cells; etoposide or cisplatinum: AGS or MCF7 cells
Description: Equal amounts of cell lysate were separated by SDS-PAGE and analysed by immunoblotting using the indicated antibodies. An estimation of the extent of cell rounding is indicated above each lane. […] (B) The effect of compound 2 on the levels of the cell cycle proteins in AGS cells (wild-type 53). […] Equal amounts of cell lysate were separated by SDS-PAGE and analysed by immunoblotting using the indicated antibodies. An estimation of the extent of cell rounding is indicated above each lane. (C) The effect of negative control compound (refer Example 10), compound 2, cisplatin, and anisomycin on the levels of key proteins in MCF7 cells. […] Cisplatinum and anisomycin (a transcription inhibitor) treatments were with 50 μM or 37 μM, respectively. Cells were harvested at various time points; afterwards lysates were prepared and separated by SDS-PAGE and analysed by immunoblotting. The proteins detected are indicated. The extent of rounded or floating cells and the percentage viable cells were assessed. […] Equal amounts of cell lysate were separated by SDS-PAGE and analysed by immunoblotting using a range of antibodies. An estimation of the extent of cell rounding is indicated above each lane. […] SJSA1 cells were treated with 5 times [IC50] of compound 2 and collected at the indicated time points. Equal amounts of cell lysate were separated by SDS-PAGE and analysed by immunoblotting using a range of antibodies. An estimation of the extent of cell rounding is indicated above each lane.
Many types of cellular stress converge on the p53 pathway and induce its activity. […] The biological effect of bisarylsufonamides on cellular level was studies using representative compounds (mainly compound 2) and number of cell lines with different HDM2 and p53 status. These were overexpressing Hdm2 (SJSA1—osteosarcoma), wild type p53 and normal levels of HDM2 (AGS—gastric adenocarcinoma, MCF7—breast adenocarcinoma), or p53 null, low levels of HDM2 (H1299—large cell lung carcinoma).
Cells were lysed and equal amounts were analysed by SDS-polyacrylamide gel electrophoresis (SDS-PAGE) and immunoblotting.

Nci-H460 = experiment: 72-h MTT cytotoxicity assay, Nci-H460; type: cell-based; conditions: Homo sapiens, Nci-H460, Large cell lung carcinoma, read-out: Anti-proliferative activity, 72-h MTT IC50
Experimental: (§2) Representative bisarylsulfonamide compounds were tested on a panel of transformed and non-transformed human cell lines, using a standard 72-h MTT cytotoxicity assay [Haselsberger K et al, ibid].

SJSA-1 [5] = experiment: 72-h MTT cytotoxicity assay, SJSA-1; type: cell-based; conditions: Homo sapiens
Summary of the method: (§3)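 Compounds were incubated with three human tumour lines chosen for genetic contrast, then viability was scored by MTT reduction. AGS is gastric with intact p53, SJSA-1 is bone sarcoma bearing intact p53 and amplified HDM2 expression, and H1299 is lung carcinoma without p53.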

HCT116 = experiment: 72-h MTT cytotoxicity assay, HCT116; type: cell-based; conditions: Homo sapiens, HCT-116, 72 h; HCT116, Colon carcinoma; read-out: Anti-proliferative activity, 72-h MTT IC50
Experimental: as §2

HeLa = experiment: 72-h MTT cytotoxicity assay, HeLa; type: cell-based; conditions: Homo sapiens, Cervical carcinoma, read-out: Anti-proliferative activity, 72-h MTT IC50
Experimental: as §2

AGS [6] = experiment: 72-h MTT cytotoxicity assay, AGS; type: cell-based; conditions: Homo sapiens
Summary of the method: as §3

IMR90 = experiment: 72-h MTT cytotoxicity assay, IMR90; type: cell-based; conditions: Homo sapiens, IMR-90, 72 h; IMR90, Lung fibroblasts; read-out: Anti-proliferative activity, 72-h MTT IC50
Experimental: as §2

HS27 = experiment: 72-h MTT cytotoxicity assay, HS27; type: cell-based; conditions: Homo sapiens, HS27, Foreskin fibroblasts, read-out: Anti-proliferative activity, 72-h MTT IC50
Experimental: as §2

[7] = system: transformed human cell lines; experiment: 72-h MTT panel, average transformed; type: cell-based; conditions: average over transformed cell lines, read-out: Anti-proliferative activity, 72-h MTT IC50, Average transformed
Experimental: as §2
(§4) This differential selectivity further supports the notion that the bisarylsulfonamides modulate cellular HDM2 function. It is known that HDM2 amplification is particularly common in soft tissue sarcomas and osteosarcomas [Momand J et al, ibid; Bartel F, Meye A, Wurl P, Kappler M, Bache M, Lautenschlager C, Grunbaum U, Schmidt H, Taubert H; Int. J. Cancer 2001; 95: 168-175].

H1299 [8] = experiment: 72-h MTT cytotoxicity assay, H1299; type: cell-based; conditions: Homo sapiens
Summary of the method: as §3

NaCat = experiment: 72-h MTT cytotoxicity assay, NaCat; type: cell-based; conditions: Keratinocyte, Human keratinocytes, read-out: Anti-proliferative activity, 72-h MTT IC50
Experimental: as §2

Lovo = experiment: 72-h MTT cytotoxicity assay, Lovo; type: cell-based; conditions: Homo sapiens, Colon adenocarcinoma, read-out: Anti-proliferative activity, 72-h MTT IC50
Experimental: as §2

HT29 = experiment: 72-h MTT cytotoxicity assay, HT29; type: cell-based; conditions: Homo sapiens, HT-29, 72 h; HT29, Colon adenocarcinoma; read-out: Anti-proliferative activity, 72-h MTT IC50
Experimental: as §2

carcinoma cell lines = experiment: 72-h MTT panel, average carcinomas; type: cell-based; conditions: Homo sapiens, read-out: Anti-proliferative activity, 72-h MTT IC50, Average carcinomas
Experimental: as §2, §4

A549 = experiment: 72-h MTT cytotoxicity assay, A549; type: cell-based; conditions: Homo sapiens, A549, Lung carcinoma, read-out: Anti-proliferative activity, 72-h MTT IC50
Experimental: as §2

SK-N-MC = experiment: 72-h MTT cytotoxicity assay, SK-N-MC; type: cell-based; conditions: Homo sapiens, Neuriepithelioma, read-out: Anti-proliferative activity, 72-h MTT IC50
Experimental: as §2

Messa-Dx5 = experiment: 72-h MTT cytotoxicity assay, Messa-Dx5; type: cell-based; conditions: Homo sapiens, MES-SA/Dx5, 72 h; Messa-Dx5, Uterus sarcoma; read-out: Anti-proliferative activity, 72-h MTT IC50
Experimental: as §2

p53 = p53 reporter gene assay (U2OS-derived luciferase reporter cell line)
Experimental: A dual assay assessing both cell viability and p53 response was employed. A U2OS-derived cell line stably transfected with a p53 response element and a luciferase reporter gene was created. […] After seeding of cells into 96-well tissue culture plates, treatment with test compounds, and incubation for the desired duration, the cell proliferation reagent WST-1 (Roche Molecular Biochemicals) was used to determine cell viability. The Bright-Glo™ Luciferase Assay System (Promega) was used to measure luciferase activity. The data from the cell viability assay was used to normalise data from the luciferase assay.

sarcoma cell lines = experiment: 72-h MTT panel, average sarcomas; type: cell-based; conditions: Homo sapiens, average over sarcoma cell lines, read-out: Anti-proliferative activity, 72-h MTT IC50, Average sarcomas
Experimental: as §2, §4

Messa = experiment: 72-h MTT cytotoxicity assay, Messa; type: cell-based; conditions: Homo sapiens, MES-SA, Uterus sarcoma, read-out: Anti-proliferative activity, 72-h MTT IC50
Experimental: as §2

U2OS = experiment: 72-h MTT cytotoxicity assay, U2OS; type: cell-based; conditions: Homo sapiens, Osteosracoma, read-out: Anti-proliferative activity, 72-h MTT IC50
Experimental: as §2

WI38 = experiment: 72-h MTT cytotoxicity assay, WI38; type: cell-based; conditions: Homo sapiens, WI-38, 72 h; WI38, Lung fibroblasts; read-out: Anti-proliferative activity, 72-h MTT IC50
Experimental: as §2

HDM2 = biological target: T1, HDM2 (Homo sapiens, UniProt Q00987); experiment: Fluorescence polarisation competitive HDM2 binding assay
T1 construct: Recombinant HDM2 (1.5 μg per well) in TBS-BSA buffer
T1 sequence (Q00987 whole entry): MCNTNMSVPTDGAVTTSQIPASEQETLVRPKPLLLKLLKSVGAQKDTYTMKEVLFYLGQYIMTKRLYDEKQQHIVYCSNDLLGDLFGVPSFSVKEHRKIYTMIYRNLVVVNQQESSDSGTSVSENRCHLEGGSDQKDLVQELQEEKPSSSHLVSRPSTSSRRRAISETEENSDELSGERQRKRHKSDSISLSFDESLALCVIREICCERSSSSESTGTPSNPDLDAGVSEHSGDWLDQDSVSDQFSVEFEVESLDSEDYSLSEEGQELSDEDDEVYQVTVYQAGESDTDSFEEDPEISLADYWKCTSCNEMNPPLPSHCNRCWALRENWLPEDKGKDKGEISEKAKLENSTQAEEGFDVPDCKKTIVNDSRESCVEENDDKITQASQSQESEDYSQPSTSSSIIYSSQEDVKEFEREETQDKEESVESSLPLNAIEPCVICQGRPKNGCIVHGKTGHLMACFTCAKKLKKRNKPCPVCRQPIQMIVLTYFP
Summary of the method: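 Recombinant HDM2 (1.5 μg/well) was preincubated 5 min at room temperature with serially diluted compound in 50 mM Tris pH 7.4, 150 mM NaCl, 0.1% BSA, 5% DMSO final. Fluorescein-labelled p53 peptide (0.2 μM) was then added for 45 min. Polarisation was read at 485/520 nm and IC50 derived from dose-response curves.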

MCF7 = experiment: 72-h MTT cytotoxicity assay, MCF7; type: cell-based; conditions: Homo sapiens, MCF7, Breast adenocarcinoma, read-out: Anti-proliferative activity, 72-h MTT IC50
Experimental: as §2

Saos-2 = experiment: 72-h MTT cytotoxicity assay, Saos-2; type: cell-based; conditions: Homo sapiens, Saos-2, Osteosracoma, read-out: Anti-proliferative activity, 72-h MTT IC50
Experimental: as §2

[9] = system: non-transformed human cell lines; experiment: 72-h MTT panel, average non-transformed; type: cell-based; conditions: average over non-transformed cell lines, read-out: Anti-proliferative activity, 72-h MTT IC50, Average non-transformed
Experimental: as §2, §4

SKUT-1 = experiment: 72-h MTT cytotoxicity assay, SKUT-1; type: cell-based; conditions: Homo sapiens, SK-UT-1, 72 h; SKUT-1, Uterus leiomyosarcoma; read-out: Anti-proliferative activity, 72-h MTT IC50
Experimental: as §2

DU145 = experiment: 72-h MTT cytotoxicity assay, DU145; type: cell-based; conditions: Homo sapiens, DU-145, 72 h; DU145, Prostate carcinoma; read-out: Anti-proliferative activity, 72-h MTT IC50
Experimental: as §2

[10] = Table 5, read-out: IC50, agent alone
[11] = Homo sapiens, Table 6, read-out: IC50, agent alone

Compound: N.N.[Cl][Pt][Cl] [Cisplatin, reference compound]
- IC50 (H1299 [1]; MTT, Table 5, read-out: IC50, agent alone): 2.9 µM
- IC50 (AGS [2]; [10]): 3.8 µM
- cell cycle arrest (MCF7 or H1299 cells): no detectable arrest at any phase of the cell cycle
- sub-G1 cells, indicative of apoptosis (MCF7 or H1299 cells): induced sub-G1 cells
- IC50 (SJSA-1 [3]; [10]): 6.1 µM
- p53 level and p53 phosphorylation at serine 15 [4]: inducing p53 phosphorylation of serine 15, as well as increasing the p53 and E2F-1 protein levels

Compound: CN(c1ccc(F)cc1)S(=O)(=O)c1cc([N+](=O)[O-])c(Cl)s1 [Compound 7]
- IC50 (Nci-H460): 9.6 µM
- IC50 (SJSA-1 [5]; 72 h, SJSA-1, Osteosracoma, Table 2, read-out: Anti-proliferative activity, 72-h MTT IC50): 17 µM
- IC50 (SJSA-1 [5]; SJSA-1, 72-h MTT, Table 1, read-out: IC50 Anti-proliferative effect on cell line SJSA-4): 9.3 ± 2.7 µM
- IC50 (HCT116): 12.2 µM
- IC50 (HeLa): 13.7 µM
- IC50 (AGS [6]; 72-h MTT, Table 1, read-out: IC50 Anti-proliferative effect on cell line AGS): 7 ± 1.3 µM
- IC50 (AGS [6]; 72 h, Gastric adenocarcinoma, Table 2, read-out: Anti-proliferative activity, 72-h MTT IC50): 5 µM
- IC50 (IMR90): 41.8 µM
- IC50 (HS27): 39.2 µM
- IC50 [7]: 10.2 ± 4.4 µM
- IC50 (H1299 [8]; NCI-H1299, 72 h, H1299, Large cell lung carcinoma, Table 2, read-out: Anti-proliferative activity, 72-h MTT IC50): 14 µM
- IC50 (H1299 [8]; NCI-H1299, 72-h MTT, Table 1, read-out: IC50 Anti-proliferative effect on cell line H 1299): 12.9 ± 0.7 µM
- IC50 (NaCat): 12.9 µM
- IC50 (Lovo): 8.5 µM
- IC50 (HT29): 4.6 µM
- IC50 (carcinoma cell lines; average over carcinoma cell lines): 9.7 ± 4.7 µM
- IC50 (A549): 19.3 µM
- IC50 (SK-N-MC): 3 µM
- IC50 (Messa-Dx5): 7.6 µM
- Fold induction of luciferase activity (p53; compared to basal luciferase activity, 16-h time point, at concentration of maximal induction): 32 fold
- Concentration (test compound concentration at which the p53 induction was maximal) (p53; p53 reporter, U2OS-derived cell line): 9 µM
- IC50 (sarcoma cell lines): 11.3 ± 3.7 µM
- IC50 (Messa): 8.1 µM
- IC50 (U2OS): 8.8 µM
- IC50 (WI38): 52.3 µM
- IC50 (HDM2; fluorescence polarisation assay, Table 3, read-out: In vitro competitive HDM2 binding assay IC50): 15.4 ± 7.8 µM
- IC50 (HDM2; fluorescence polarisation format, Table 1, read-out: IC50 In vitro competitive HDM2 binding assay): 15.4 ± 7.8 µM
- IC50 (MCF7): 11.2 µM
- IC50 (Saos-2): 13.3 µM
- IC50 [9]: 44.6 ± 6.9 µM
- IC50 (SKUT-1): 6.1 µM
- IC50 (DU145): 9.1 µM

Compound: COc1cc([C@@H]2c3cc4c(cc3[C@@H](O[C@@H]3O[C@@H]5CO[C@@H](C)O[C@H]5[C@H](O)[C@H]3O)[C@H]3COC(=O)[C@H]23)OCO4)cc(OC)c1O [Etoposide, reference compound]
- IC50 (H1299 [1]; Homo sapiens, NCI-H1299, MTT, Table 6, read-out: IC50, agent alone): 1.3 µM
- IC50 (AGS [2]; [11]): 0.28 µM
- IC50 (SJSA-1 [3]; [11]): 16 µM

Compound: CC[C@H](CO)Nc1nc(NCc2ccccc2)c2ncn(C(C)C)c2n1 [Roscovitine, reference compound]
- IC50 (carcinoma cell lines): 11.2 ± 3 µM
